Assay results as given in US11464750B2, “Anticancer agent and use thereof” (priority 2017, dated 2022).

Assays:
Format in all cases: cell-based, human
p-Akt (Ser^473) [1] = assay: Western blotting, p-Akt, JeKo-1 cells; conditions: 0.5 μM
Description: (§1) Specifically, first, JeKo-1 cells were cultured for 0 (control), 12, 24, and 48 hours in the presence of 0.5 μM of 3EZ,20Ac-ingenol. In addition, Panc-1 cells were cultured for 0 (control), 12, 24, and 48 hours in the presence of 3 μM of 3EZ,20Ac-ingenol.
(§2) Subsequently, by Western blotting using an anti-Akt antibody (Cell Signaling Technology) and an anti-p-Akt (Ser^473) antibody (Cell Signaling Technology), abundances of total amounts of Akt protein and p-Akt in the entire cell fractions, nuclear fractions, and cytoplasm fractions of the respective cells were analyzed. Furthermore, as a loading control, actin protein was detected using an anti-actin antibody (Sigma).

[2] = system: phosphorylated p53 (p-p53) protein; assay: Western blotting, phosphorylated p53, Panc-1 cells; conditions: 3 μM
Description: Specifically, JeKo-1 cells were cultured for 0 (control), 12, 24, and 48 hours in the presence of 0.5 μM of 3EZ,20Ac-ingenol. In addition, Panc-1 cells were cultured for 0 (control), 12, 24, and 48 hours in the presence of 3 μM of 3EZ,20Ac-ingenol.
Subsequently, ATR protein, p53 protein, and phosphorylated p53 (hereinafter also referred to as “p-p53”) protein in the respective cells were respectively detected using an anti-ATR antibody (Cell Signaling Technology), an anti-p53 antibody (Santa Cruz), and an anti-p-p53 antibody (Cell Signaling Technology). Furthermore, as a loading control, actin protein was detected using an anti-actin antibody (Sigma).

p-GSK-3β (Ser^9) = assay: Western blotting, p-GSK-3β (Ser9), JeKo-1 cells; conditions: 0.5 μM, entire cell
Description: as §1
Subsequently, abundances of GSK-3β and p-GSK-3β in the respective cells were analyzed by Western blotting using an anti-GSK-3β antibody (Cell Signaling Technology) and an anti-p-GSK-3β (Ser^9) antibody (Cell Signaling Technology). Furthermore, as a loading control, actin protein was detected using an anti-actin antibody (Sigma).

[3] = system: phosphorylated Akt (Ser^473); assay: Western blotting, p-Akt (Ser473), TKG0377 cells; conditions: 0.5 μM
Description: The effect of 3EZ,20Ac-ingenol treatment on a PI3K/Akt signaling pathway was examined. Specifically, BALL-1 cells, TKG0210 cells, and TKG0377 cells were cultured for 48 hours in the presence of 3EZ,20Ac-ingenol at a final concentration of 0.5 μM, and by Western blotting using an anti-p-Akt (Ser^473) antibody (Cell Signaling Technology), phosphorylation of the 473th serine residue of an Akt protein in respective fractions of the entire cell, a nucleus, and a cytoplasm was analyzed. In addition, cells cultured in the absence of 3EZ,20Ac-ingenol were used as controls.
BALL-1 cells, TKG0210 cells, and TKG0377 cells were cultured for 24 and 48 hours in the presence of 3EZ,20Ac-ingenol at a final concentration of 0.5 μM, and abundances of p-Akt in the nuclear fraction and the cytoplasm fraction were analyzed by Western blotting. In addition, respective cells cultured in the absence of 3FZ,20Ac-ingenol were used as controls.

Akt protein = assay: Western blotting, total amount of Akt, Panc-1 cells; conditions: 3 μM
Description: as §1, §2

PTEN protein = assay: Western blotting, PTEN protein, Panc-1 cells; conditions: 3 μM
Description: as §1
Subsequently, abundances of PTEN protein in entire cell fractions, nuclear fractions, and cytoplasm fractions of the respective cells were analyzed by Western blotting using an anti-PTEN antibody (Santa Cruz). Furthermore, as a loading control, actin protein was detected using an anti-actin antibody (Sigma).

caspase 3 = assay: Western blotting, activated caspase 3, JeKo-1 cells; conditions: 0.5 μM, 48 hours after treatment
Description: Specifically, JeKo-1 cells were cultured for 0 (control), 12, 24, and 48 hours in the presence of 0.5 μM of 3EZ,20Ac-ingenol. In addition. Panc-1 cells were cultured for 0 (control), 12, 24, and 48 hours in the presence of 3 μM of 3EZ,20Ac-ingenol. Subsequently, activation of caspase 3 in the respective cells was detected by Western blotting using an anti-activated-caspase antibody (R & D Systems). Furthermore, as a loading control, actin protein was detected using an anti-actin antibody (Sigma).

p-Akt (Ser^473) [4] = assay: Western blotting, p-Akt, Panc-1 cells; conditions: 3 μM
Description: as §1, §2

[5] = entire cell fraction, 12 hours and 24 hours
[6] = nuclear fraction and cytoplasm fraction, 12 to 24 hours
[7] = nuclear fraction and cytoplasm fraction, 48 hours

SMILES: CCCCC/C=C\C=C\C(=O)O[C@H]1C(C)=C[C@]23C(=O)[C@@H](C=C(COC(C)=O)[C@@H](O)[C@]12O)[C@H]1[C@@H](C[C@H]3C)C1(C)C [3EZ,20Ac-ingenol, 3-O-(2′E,4′Z-decadienoyl)-20-O-acetylingenol]
- abundance of p-Akt (p-Akt (Ser^473) [1]; cytoplasm fraction, 12 to 48 hours): a decrease in abundance of p-Akt was clearly recognized
- abundance of p-Akt (p-Akt (Ser^473) [1]; entire cell fraction): a slight decrease in abundance of p-Akt was observed
- abundance of p-Akt (p-Akt (Ser^473) [1]; nuclear fraction): no change in an abundance of p-Akt was recognized
- phosphorylation of p53 ([2]; 12 hours after treatment, entire cells): phosphorylation of p53 was observed
- amount of phosphorylated p53 protein ([2]; nuclear fraction and cytoplasm fraction): the amount of phosphorylated p53 protein increased
- p-GSK-3β (an inactive type) (p-GSK-3β (Ser^9)): a decrease in p-GSK-3β (an inactive type) was observed
- abundance of p-Akt ([3]; 24 and 48 hours, cytoplasm fraction and nuclear fraction): no decrease in abundance of p-Akt was observed
- abundance of p-Akt ([3]; 48 hours, cytoplasm fraction): remained almost unchanged
- abundance of p-Akt ([3]; 48 hours, nuclear fraction): increased
- abundance of total amount of Akt (Akt protein; [5]): a temporary increase in abundances of both p-Akt and total amount of Akt was recognized
- abundance of total amount of Akt (Akt protein; entire cell fraction, 48 hours): a decrease was observed again
- abundance of total amount of Akt (Akt protein; [6]): an increase in abundance of both p-Akt and total amount of Akt was recognized
- abundance of total amount of Akt (Akt protein; [7]): a decrease was observed 48 hours after the treatment
- abundance of PTEN protein (PTEN protein; cytoplasm fraction, 12 hours to 24 hours): an increase in abundance of PTEN protein in the cytoplasm fraction was observed
- abundance of PTEN protein (PTEN protein; cytoplasm fraction, 48 hours): a decrease in abundance of PTEN protein was observed
- abundance of PTEN protein (PTEN protein; entire cell fraction, 12 hours until 48 hours): an abundance of PTEN protein increased
- abundance of PTEN protein (PTEN protein; nuclear fraction, 12 hours to 24 hours): an increase in abundance of PTEN protein in the nuclear fraction was observed
- activation of caspase 3 (caspase 3): activation of caspase 3 was observed
- abundance of p-Akt (p-Akt (Ser^473) [4]; [5]): a temporary increase in abundances of both p-Akt and total amount of Akt was recognized
- abundance of p-Akt (p-Akt (Ser^473) [4]; entire cell fraction, 48 hours): a decrease was observed again
- abundance of p-Akt (p-Akt (Ser^473) [4]; [6]): an increase in abundance of both p-Akt and total amount of Akt was recognized
- abundance of p-Akt (p-Akt (Ser^473) [4]; [7]): a decrease was observed 48 hours after the treatment
